# Experimental data published in PMC9266914, “Broad Spectrum Functional Activity of Structurally Related Monoanionic Au(III) Bis(Dithiolene) Complexes” (International Journal of Molecular Sciences, 2022).
# Read-outs that look alike come from different tables or passages of the source.
# Columns and labels:
# [1] = test system: A2780 ovarian cancer cells; assay: MTT cytotoxicity assay in A2780 (cisplatin sensitive) ovarian cancer cells; format: cell-based, human
# Outline: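 Cells in RPMI-1640 with 10% FBS exposed to complexes at 0.01–100 μM for 24 and/or 48 h at 37 °C. Viability by colorimetric MTT; IC50 derived from dose–response curves.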
# [2] = test system: Huh7 cells; assay: Cell viability (cell confluency, Alamar Blue) of P. berghei-infected Huh7 cells; format: cell-based; conditions: 5 µM, in words
# Experimental: The in vitro liver stage activity of gold complexes was assessed against P. berghei-infected Huh7 cells, as previously described. Briefly, Huh7 cells were cultured in RPMI-1640 medium supplemented with 10% (v/v) fetal bovine serum, 1% (v/v) penicillin/streptomycin, 1% (v/v) glutamine, 1% (v/v) non-essential amino acids and 10 mM HEPES. On the day prior to infection, Huh7 cells were seeded in 96-well plates at a density of approximately 3.1 × 10^4 cell/cm^2 and incubated at 37 °C, 5% CO2. Stock solutions of the complexes were initially prepared in DMSO and serially diluted in infection medium, i.e., culture medium supplemented with gentamicin (50 µg/mL) and fungizone (0.8 µg/mL), to obtain the test concentrations. As a control, DMSO was diluted in infection medium to a percentage that equals that of the highest compound concentrations tested. These dilutions were added to the cells in triplicates and incubated for 1 h at 37 °C, 5% CO2, after which 1 × 10^4 luciferase-expressing P. berghei sporozoites were added to each well. Plates were centrifuged at 1800× g for 5 min at room temperature and incubated for the duration of the assay. At 46 h post-infection (hpi), the impact of each compound concentration on cell viability was assessed by the Alamar Blue (Invitrogen, Buckinghamshire, UK) assay, according to the manufacturer’s recommendations. Infection was next assessed by bioluminescence, employing the Firefly Luciferase Assay Kit 2.0 (Biotium, Fremont, CA, USA), according to the manufacturer’s recommendations. For IC50 determination, nonlinear regression analysis was employed to fit the normalized results of the dose–response curves, using GraphPad Prism 8 (GraphPad software, La Jolla, CA, USA).
# [3] = test system: P. falciparum NF54 blood stage; assay: In vitro activity against the blood stage of P. falciparum NF54 (SYBR green flow cytometry); format: cell-based, Plasmodium falciparum; conditions: 48 h, read-out: IC50 PfNF54
# Experimental: Ring-stage synchronized cultures of PfNF54 at 2.5% hematocrit and at approximately 1% parasitemia were incubated with gold complexes or DMSO (vehicle control) in 96 well-plates, for 48 h, at 37 °C in a 5% CO2 and 5% O2 atmosphere. Stock solutions of Chloroquine (positive control), [P][AuSEt(=S)] and [P][AuSEt(=Se)] were prepared in DMSO. Working solutions were prepared from the stock solutions in complete malaria culture medium (CMCM), which consists of RPMI 1640 supplemented with 25 mM HEPES, 2.4 mM L-glutamine, 50 μg/mL gentamicin, 0.5% w/v Albumax, 11 mM glucose, 1.47 mM hypoxanthine and 37.3 mM NaHCO3. For each measurement, 5 µL of the culture (approximately 800,000 cells) was stained with the DNA-specific dye SYBR green I at 1×. After 20 min of incubation, in the dark, the stained sample was analyzed by flow cytometry. For each flow cytometric measurement, approximately 100,000 events were analyzed. All samples were analyzed in triplicate and two independent experiments were performed.
# [4] = test system: TZM-bl cells; assay: alamarBlue cytotoxicity in TZM-bl cells; format: cell-based
# Experimental: The in vitro cytotoxicity of auranofin, [P][AuSBu(=S)] and [P][AuSEt(=S)] was evaluated in TZM-bl cells using alamarBlue cell viability reagent (Life Technologies, Carlsbad, CA, USA). TZM-bl cells (AIDS Research and Reference Reagent Program, National Institutes of Health, Bethesda, MD, USA) were cultured in complete growth medium that consists of Dulbecco’s minimal essential medium (DMEM) supplemented with 10% fetal bovine serum (FBS), 100 U/ml of penicillin-streptomycin (Gibco/Invitrogen, Waltham, MA, USA), 1 mM of sodium pyruvate (Gibco/Invitrogen, Carlsbad, CA, USA), 2 mM of L-glutamine (Gibco/Invitrogen, USA) and 1 mM of non-essential amino acids (Gibco/Invitrogen, USA). Cells were cultured in the presence and absence of serial-fold dilutions of the compounds. At least two independent experiments were performed for each cytotoxicity analysis. Each dilution of each compound was performed in triplicate wells. For each assay we had medium controls (only growth medium), cell controls (cells without test compound) and cytotoxicity controls (a compound that kill cells). The cytotoxicity of each compound was expressed by the 50% cytotoxic concentration (CC50), which is the concentration of compound causing 50% decrease in cellular viability.
# [5] = 24 h incubation, read-out: IC50 A2780, 24 h
# [6] = 48 h incubation, read-out: IC50 A2780, 48 h
Compound,"IC50 [1, 5] [nM]","IC50 [1, 6] [nM]",toxicity seen as lower cell confluency [2],IC50 [3] [nM],CC50 [4],cytotoxicity in TZM-bl culture cells [4],"CC50 ([4]; TZM-bl cells, alamarBlue, read-out: CC50) [nM]"
CC(C)n1c2c(sc1=S)[Se][Au-]1([Se]c3sc(=S)n(C(C)C)c3[Se]1)[Se]2.c1ccc([P+](c2ccccc2)(c2ccccc2)c2ccccc2)cc1 [[P][AuSeiPr(=S)]],3740 ± 1220,680 ± 180,,,,,
CCn1c2c(sc1=S)[S][Au-]1([S]c3sc(=S)n(CC)c3[S]1)[S]2.c1ccc([P+](c2ccccc2)(c2ccccc2)c2ccccc2)cc1 [[P][AuSEt(=S)]],580 ± 200,180,some degree of toxicity,1060 ± 393,4920 nM,No significant cytotoxicity,
"CC(=O)OC[C@H]1O[C@@H]([S-])[C@H](OC(C)=O)[C@@H](OC(C)=O)[C@@H]1OC(C)=O.CCP(CC)CC.[Au+] [Auranofin, reference compound]",2010 ± 710,,,,,,3210
CCn1c2c(sc1=[Se])[S][Au-]1([S]c3sc(=[Se])n(CC)c3[S]1)[S]2.c1ccc([P+](c2ccccc2)(c2ccccc2)c2ccccc2)cc1 [[P][AuSEt(=Se)]],710 ± 120,220 ± 110,some degree of toxicity,1000 ± 391,,,
CCCCn1c2c(sc1=S)[S][Au-]1([S]c3sc(=S)n(CCCC)c3[S]1)[S]2.c1ccc([P+](c2ccccc2)(c2ccccc2)c2ccccc2)cc1 [[P][AuSBu(=S)]],1380 ± 280,950 ± 50,,,not possible to calculate,No significant cytotoxicity,
